Data on one compound can be found in patent publication US20060194828A1, “Vitamin comprising pyroloquinoline quinone and use thereof” (priority 2003, published 2006).

In assay [1] the test system is AASDH activity (mU26). The assay is described as follows: PQQ-deficient feedstuff given to mice, levels of amino acids and AAA in blood. The assay is classed as in vivo, mouse. The conditions noted are these: PQQ-deficient vs PQQ-added (100 ng PQQ·2Na per gram) feedstuff, ICR female mice, 20 days. From the text:
The mice were fed with feedstuff, to which PQQ had not been added (−PQQ) or had been added (+PQQ) and which had chemically been limited, for 20 days. Thereafter, the peripheral blood was collected therefrom, and amino acids contained in the blood were quantified using an amino acid analyzer. The amount of lysine (A) was indicated with a percentage to the total amount of amino acids in blood. The amount of 2-aminoadipic acid was normalized with lysine (B) or glycine (C). The horizontal line represents the mean value of mice in each group.
In order to clarify the role of PQQ influenced on AASDH activity, feedstuff containing no PQQ was given to mice, and such influence was examined. Chemically defined feedstuff (to which no PQQ was added or 100 ng PQQ·2Na was added per gram of feedstuff) was produced in accordance with the publication (Killgore, J. et al. (1989) Science 245, 850-852; Steinberg, F. M. et al. (1994) J. Nutr. 124, 744-753). The thus produced feedstuff was given to virgin female mice (ICR, 4-week-old) for 20 days. The levels of various amino acids and AAA in blood were measured by the above-described method. […] In particular, when normalization was carried out with the amount of lysine, AAA was reduced most clearly (FIG. 6B).

Assay [2] has as its system PQQ-deficient mice. The conditions noted are these: skin fragility, skeletal abnormality, decreased immune response, poor reproduction and growth; cited from earlier work.

“Also recorded” adds a separate entry of the source.

Take `O=C(O)c1cc(C(=O)O)c2c(n1)C(=O)C(=O)c1cc(C(=O)O)[nH]c1-2` [PQQ, pyrroloquinoline quinone]: the “level of AAA (2-aminoadipic acid) in blood” value in assay [1] (normalized with lysine or glycine) is on record as “reduced more significantly; also recorded: significantly decreased in PQQ-deficient mice”. The “amount of lysine in blood” value in assay [1] (percentage to total amino acids in blood) is “not significantly different; also recorded: not changed”. The “amount of PQQ added to feedstuff that recovered the abnormalities of PQQ-deficient mice” value in assay [2] is ≥ 800 ng per gram of feedstuff.
